This assay has as its target T1, Ba/F3 cell EGFR Exon20 ins NPH (Homo sapiens, UniProt P00533, INS773NPH).
T1 construct: expressed in transfected cells; host or cells: Ba/F3
In words: Ba/F3 cell proliferation suppression, EGFR Exon20 ins NPH. The note with it: GI50 class; Ba/F3 cell line with NPH inserted at Exon20 of EGFR; 72 hours. The format is cell-based. The method, boiled down:
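Growth suppression determined as GI50 following 72 h exposure across 12 concentrations up to 50 um, with viability by luminescent ATP assay (CellTiter-Glo).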

With `C=CC(=O)Nc1cc(Nc2cc(N3OCC[C@@H]3c3ccc(F)c(Cl)c3)ncn2)c(OC)cc1N1CCC(N2CCC(N(C)C)CC2)CC1` [compound 768, N-(5-((6-((R)-3-(3-chloro-4-fluorophenyl)isoxazolidine-2-yl)pyrimidine-4-yl)amino)-2-(4-(dimethylamino)-[1,4'-bipiperidine]-1'-yl)-4-methoxyphenyl) acrylamide], the “Ba/F3 (NPH) Activity” value is “A (GI50 < 50 nM)”.
`C=CC(=O)Nc1cc(Nc2cc(N3OCC[C@@H]3c3cc(F)ccc3F)ncn2)c(OC)cc1N1CCC(N2C[C@H](C)N(C3CC3)C[C@H]2C)CC1` [Example 173, N-(2-(4-((2R,5S)-4-cyclopropyl-2,5-dimethylpiperazine-1-yl)piperidine-1-yl)-5-((6-((R)-3-(2,5-difluorophenyl)isoxazolidine-2-yl)pyrimidine-4-yl)amino)-4-methoxyphenyl) acrylamide]: the “Ba/F3 (NPH) Activity” value is given as “A (GI50 < 50 nM)”.
As to `C=CC(=O)Nc1cc(Nc2cc(N3OCC[C@@H]3c3cc(F)cc(F)c3)ncn2)c(O[C@H](C)C(F)(F)F)cc1N1CCC(N2CCN(C3CC3)CC2)CC1` [Example 119, N-(2-(4-(4-cyclopropylpiperazine-1-yl)piperidine-1-yl)-5-((6-((R)-3-(3,5-difluorophenyl)isoxazolidine-2-yl)pyrimidine-4-yl)amino)-4-(((R)-1,1,1-trifluoropropane-yl)oxy)phenyl)acrylamide], the “Ba/F3 (NPH) Activity” value is on record as “A (GI50 < 50 nM)”.
With `C=CC(=O)Nc1cc(Nc2cc(N3OCC[C@@H]3c3ccc(F)c(Cl)c3)ncn2)c(OC)cc1N1CCC(N2CC[C@H](N(C)C)C2)CC1` [compound 764, N-(5-((6-((R)-3-(3-chloro-4-fluorophenyl)isoxazolidine-2-yl)pyrimidine-4-yl)amino)-2-(4-((S)-3-(dimethylamino)pyrolidine-1-yl)piperidine-1-yl)-4-methoxyphenyl) acrylamide], the “Ba/F3 (NPH) Activity” value is on record as “A (GI50 < 50 nM)”.
Next, `C=CC(=O)Nc1cc(Nc2cc(N3OCC[C@@H]3c3cccc(Cl)c3C)ncn2)c(OC)cc1N1CCN(CC)CC1` [compound 585, N-(5-((6-((R)-3-(3-chloro-2-methylphenyl)isoxazolidine-2-yl)pyrimidine-4-yl)amino)-2-(4-ethylpiperazine-1-yl)-4-methoxyphenyl) acrylamide]: “A (GI50 < 50 nM)”; `C=CC(=O)Nc1cc(Nc2cc(N3OCC[C@@H]3Cc3ccccc3)ncn2)c(OC)cc1N(C)CCN(C)C` [compound 947, N-(5-((6-((S)-3-benzylisoxazolidine-2-yl)pyrimidine-4-yl)amino)-2-((2-(dimethylamino)ethyl)(methyl)amino)-4-methoxyphenyl) acrylamide]: “A (GI50 < 50 nM)”; `C=CC(=O)Nc1cc(Nc2cc(N3OCC[C@@H]3c3cccc(Cl)c3F)ncn2)c(OC)cc1N1CCC(N2CCO[C@@H](C)C2)CC1` [compound 356, N-(5-((6-((R)-3-(3-chloro-2-fluorophenyl)isoxazolidine-2-yl)pyrimidine-4-yl)amino)-4-methoxy-2-(4-((S)-2-methylmorpholino)piperidine-1-yl)phenyl) acrylamide]: “A (GI50 < 50 nM)”.
On to `C=CC(=O)Nc1cc(Nc2cc(N3OCC[C@@H]3Cc3cccnc3)ncn2)c(OC)cc1N1CCC(N2CCN(C3CC3)[C@@H](C)C2)CC1` [compound 1057, N-(2-(4-((S)-4-cyclopropyl-3-methylpiperazine-1-yl)piperidine-1-yl)-4-methoxy-5-((6-((S)-3-(pyridine-3-ylmethyl)isoxazolidine-2-yl)pyrimidine-4-yl)amino)phenyl)acrylamide], for which the “Ba/F3 (NPH) Activity” value is recorded as “B (50 nM ≤ GI50 < 500 nM)”.
Next, `C=CC(=O)Nc1cc(Nc2cc(N3OCC[C@@H]3c3cccc(Cl)c3Cl)ncn2)c(OC)cc1N1CCN(C(C)=O)CC1` [compound 519, N-(2-(4-acetylpiperazine-1-yl)-5-((6-((R)-3-(2,3-dichlorophenyl)isoxazolidine-2-yl)pyrimidine-4-yl)amino)-4-methoxyphenyl) acrylamide]: “A (GI50 < 50 nM)”.
For `C=CC(=O)Nc1cc(Nc2cc(N3OCC[C@@H]3c3cc(F)cc(F)c3)ncn2)c(OC)cc1N1CCC(N2C[C@@H]3C[C@H]2CN3C)CC1` [Example 260, N-(5-((6-((R)-3-(3,5-difluorophenyl)isoxazolidine-2-yl)pyrimidine-4-yl)amino)-4-methoxy-2-(4-((1S,4S)-5-methyl-2,5-diazabicyclo[2.2.1]heptane-2-yl)piperidine-1-yl)phenyl)acrylamide], the “Ba/F3 (NPH) Activity” value was “A (GI50 < 50 nM)”.
Then `C=CC(=O)Nc1cc(Nc2cc(N3OCC[C@@H]3c3ccc(Cl)c(Cl)c3)ncn2)c(OC)cc1N1CCN(C(C)C)CC1` [compound 680, N-(5-((6-((R)-3-(3,4-dichlorophenyl)isoxazolidine-2-yl)pyrimidine-4-yl)amino)-2-(4-isopropylpiperazine-1-yl)-4-methoxyphenyl) acrylamide], with “A (GI50 < 50 nM)”; and `C=CC(=O)Nc1cc(Nc2cc(N3OCC[C@@H]3c3cc(F)cc(F)c3)ncn2)c(OC)cc1N1CCC(N2CCN(C3CC3)C[C@H]2C)CC1` [Example 112, N-(2-(4-((R)-4-cyclopropyl-2-methylpiperazine-1-yl)piperidine-1-yl)-5-((6-((R)-3-(3,5-difluorophenyl)isoxazolidine-2-yl)pyrimidine-4-yl)amino)-4-methoxyphenyl) acrylamide], with “A (GI50 < 50 nM)”; and `C=CC(=O)Nc1cc(Nc2cc(N3OCC[C@@H]3Cc3ccccc3)ncn2)c(OC)cc1N1CCC(N2CCOCC2)CC1` [compound 965, N-(5-((6-((S)-3-benzylisoxazolidine-2-yl)pyrimidine-4-yl)amino)-4-methoxy-2-(4-morpholinopiperidine-1-yl)phenyl)acrylamide], with “A (GI50 < 50 nM)”.
In the case of `C=CC(=O)Nc1cc(Nc2cc(N3OCC[C@@H]3c3cc(F)cc(F)c3)ncn2)c(F)cc1N1CCC(N2CCN(C3CC3)CC2)CC1` [compound 533, N-(2-(4-(4-cyclopropylpiperazine-1-yl)piperidine-1-yl)-5-((6-((R)-3-(3,5-difluorophenyl)isoxazolidine-2-yl)pyrimidine-4-yl)amino)-4-fluorophenyl) acrylamide], the “Ba/F3 (NPH) Activity” value is on record as “A (GI50 < 50 nM)”.
`C=CC(=O)Nc1cc(Nc2cc(N3OCC[C@@H]3c3cc(F)ccc3F)ncn2)c(OC)cc1N1CCC(N2CCN(CC3CC3)CC2)CC1` [Example 93, N-(2-(4-(4-(cyclopropylmethyl)piperazine-1-yl)piperidine-1-yl)-5-((6-((R)-3-(2,5-difluorophenyl)isoxazolidine-2-yl)pyrimidine-4-yl)amino)-4-methoxyphenyl) acrylamide]: the “Ba/F3 (NPH) Activity” value was “A (GI50 < 50 nM)”.
Then `C=CC(=O)Nc1cc(Nc2cc(N3OCC[C@@H]3c3cc(F)cc(F)c3)ncn2)c(OC)cc1N1CCC(N2CC[C@@H](CN(C)C)C2)CC1` [compound 626, N-(5-((6-((R)-3-(3,5-difluorophenyl)isoxazolidine-2-yl)pyrimidine-4-yl)amino)-2-(4-((S)-3-((dimethylamino)methyl)pyrolidine-1-yl)piperidine-1-yl)-4-methoxyphenyl) acrylamide], with “A (GI50 < 50 nM)”.
Next, `C=CC(=O)Nc1cc(Nc2cc(N3OCC[C@H]3Cc3ccccc3)ncn2)c(OC)cc1N1CCOCC1` [compound 966, N-(5-((6-((R)-3-benzylisoxazolidine-2-yl)pyrimidine-4-yl)amino)-4-methoxy-2-morpholinophenyl) acrylamide]: “C (500 nM ≤ GI50 < 5000 nM)”; `C=CC(=O)Nc1cc(Nc2cc(N3OCC[C@@H]3c3cc(F)cc(F)c3)ncn2)c(OC)cc1N1CCC(N2CCN(C3COC3)CC2)CC1` [Example 79, N-(5-((6-((R)-3-(3,5-difluorophenyl)isoxazolidine-2-yl)pyrimidine-4-yl)amino)-4-methoxy-2-(4-(4-(oxetane-3-yl)piperazine-1-yl)piperidine-1-yl)phenyl)acrylamide]: “A (GI50 < 50 nM)”.
As to `C=CC(=O)Nc1cc(Nc2cc(N3OCC[C@@H]3c3ccc(F)c(Cl)c3)ncn2)c(OC)cc1N1CCC(N2CCN(C)[C@H](C)C2)CC1` [compound 901, N-(5-((6-((R)-3-(3-chloro-4-fluorophenyl)isoxazolidine-2-yl)pyrimidine-4-yl)amino)-2-(4-((R)-3,4-dimethylpiperazine-1-yl)piperidine-1-yl)-4-methoxyphenyl) acrylamide], the “Ba/F3 (NPH) Activity” value is “A (GI50 < 50 nM)”.
Take `C=CC(=O)Nc1cc(Nc2cc(N3OCC[C@@H]3c3ccc(F)c(F)c3)ncn2)c(OC)cc1N1CC[C@@H](N(C)C)C1` [compound 577, N-(5-((6-((R)-3-(3,4-difluorophenyl)isoxazolidine-2-yl)pyrimidine-4-yl)amino)-2-((R)-3-(dimethylamino)pyrolidine-1-yl)-4-methoxyphenyl) acrylamide]: the “Ba/F3 (NPH) Activity” value is on record as “A (GI50 < 50 nM)”.
Then `C=CC(=O)Nc1cc(Nc2cc(N3OCC[C@@H]3c3ccc(Cl)cc3F)ncn2)c(OC)cc1N1CCC(N2CC[C@H](N(C)C)C2)CC1` [compound 405, N-(5-((6-((R)-3-(4-chloro-2-fluorophenyl)isoxazolidine-2-yl)pyrimidine-4-yl)amino)-2-(4-((S)-3-(dimethylamino)pyrolidine-1-yl)piperidine-1-yl)-4-methoxyphenyl) acrylamide], with “B (50 nM ≤ GI50 < 500 nM)”; and `C=CC(=O)Nc1cc(Nc2cc(N3OCC[C@@H]3c3cccc(F)c3)ncn2)c(OC)cc1N1CCN(C(C)=O)CC1` [compound 831, N-(2-(4-acetylpiperazine-1-yl)-5-((6-((R)-3-(3-fluorophenyl)isoxazolidine-2-yl)pyrimidine-4-yl)amino)-4-methoxyphenyl) acrylamide], with “A (GI50 < 50 nM)”.

The values above are taken from patent US12157730B2, “Heteroaryl derivative, method for producing same, and pharmaceutical composition comprising same as effective component” (VORONOI INC., priority 2019, dated 2024).
